The values below come from US20240102100A1, “RIBOSOMAL RNAS 2'O-M[…] A NOVEL SOURCE OF […] FOR DIAGNOSIS, PROGNOSIS AND THERAPY OF CANCERS” (CENTRE LEON BERARD, priority 2020, published 2024).

The subject of one test is hMEC epithelial cells. In words: Cell viability monitored in real time (Incucyte), cell confluence as read-out, with increasing concentration of anisomycin. It counts as cell-based, human. Conditions: real-time monitoring. The source says:
(§1) Cell lines and cell viability. The epithelial and mesenchymal cellular models were kindly provided by Alain Puisieux's team (17). Briefly, the human epithelial mammary cell (hMECs) were used to derive EMT-related cellular models. The hMEC cell line corresponds to epithelial cells (Lonza) that were immortalized by lentiviral transduction allowing hTERT overexpression. The hMEC cell line was then transduced with lentiviral vector to induce stable over-expression of the murine EMT-TF ZEB1 and to promote EMT and thus generates the hMEC-ZEB1 mesenchymal cell line. The hMEC cellular models were maintained in DM EM-F12 (Gibo) supplemented with 0.5 μg/ml hydrocortisone, 10 ng/ml EGF, […] insulin, 10% fetal calf serum, 100 μg/ml streptomycin and 100 units/ml of penicillin. Selective pressure was maintained with puromycin for hMEC-ZEB1. Cell viability was monitored in real-time using Incucyte Live-Cell analysis system (Statorius). Cells were plated in 96-well plates without selective pressure for 24 hrs before addition of the anisomycin antibiotic (range concentration 2-200 nM). DMSO was used as negative control.
(§2) At day 6, difference in cell viability was determined using cell confluence as a read-out.

The subject of test [1] is hMEC-ZEB1 mesenchymal cells. Described as above. It counts as cell-based, human.
Source text: as §1, §2

For the compound `COc1ccc(C[C@H]2NC[C@H](O)[C@H]2OC(C)=O)cc1` [anisomycin], the “change in cell morphology” value was “no change in cell morphology was observed” in the test with hMEC epithelial cells and “no change in cell morphology was observed” in test [1] (mesenchymal cells, increasing concentration of anisomycin, real-time monitoring). Besides, in test [1] (hMEC-ZEB1 mesenchymal cells compared with hMEC epithelial cells, anisomycin 2-200 nM, day 6), the “sensitivity to anisomycin treatment (cell viability, cell confluence as read-out)” value is “more sensitive”.
